Among the data in patent publication US20250034150A1, “BTK INHIBITORS” (BIOGEN MA INC., priority 2021, published 2025) are IC50 values, retold here.

The target of this assay is T1, BTK (Homo sapiens, UniProt Q06187).
T1 construct: purchased Upstate 14-552
Description: In Vitro BTK Kinase Assay: Btk-PolyGAT-LS Assay. The assay is classed as biochemical. To be noted: active BTK enzyme 0.25 nM, polyGAT 100 nM, 30 minutes, TRF readout; read-out: In Vitro BTK Kinase Assay IC50 Score. The protocol:
The purpose of the BTK in vitro assay is to determine compound potency against BTK through the measurement of IC50. Compound inhibition is measured after monitoring the amount of phosphorylation of a fluorescein-labeled polyGAT peptide (Invitrogen PV3611) in the presence of active BTK enzyme (Upstate 14-552), ATP, and inhibitor. The BTK kinase reaction was done in a black 96 well plate (costar 3694). For a typical assay, a 24 μL aliquot of a ATP/peptide master mix (final concentration; ATP […], polyGAT 100 nM) in kinase buffer (10 mM Tris-HCl pH 7.5, 10 mM MgCl2, 200 μM […], 5 mM DTT, 0.01% Triton X-100, and 0.2 mg/ml casein) is added to each well. Next, […] of a 4-fold, 40× compound titration in 100% DMSO solvent is added, followed by adding 15 μL of BTK enzyme mix in 1× kinase buffer (with a final concentration of 0.25 nM). The assay is incubated for 30 minutes before being stopped with 28 μL of a 50 mM EDTA solution. Aliquots (5 uL) of the kinase reaction are transferred to a low volume white 384 well plate (Coming 3674), and 5 μL of a 2× detection buffer (Invitrogen PV3574, with 4 nM Tb—PY20 antibody, Invitrogen PV3552) is added. The plate is covered and incubated for 45 minutes at room temperature. Time resolved fluorescence (TRF) on Molecular Devices M5 (332 nm excitation; 488 nm emission; 518 nm fluorescein emission) is measured. IC50 values are calculated using a four parameter fit with 100% enzyme activity determined from the DMSO control and 0% activity from the EDTA control.

Structures can show the parent of a compound that is named as a salt.

T1 sequence (Q06187 whole entry): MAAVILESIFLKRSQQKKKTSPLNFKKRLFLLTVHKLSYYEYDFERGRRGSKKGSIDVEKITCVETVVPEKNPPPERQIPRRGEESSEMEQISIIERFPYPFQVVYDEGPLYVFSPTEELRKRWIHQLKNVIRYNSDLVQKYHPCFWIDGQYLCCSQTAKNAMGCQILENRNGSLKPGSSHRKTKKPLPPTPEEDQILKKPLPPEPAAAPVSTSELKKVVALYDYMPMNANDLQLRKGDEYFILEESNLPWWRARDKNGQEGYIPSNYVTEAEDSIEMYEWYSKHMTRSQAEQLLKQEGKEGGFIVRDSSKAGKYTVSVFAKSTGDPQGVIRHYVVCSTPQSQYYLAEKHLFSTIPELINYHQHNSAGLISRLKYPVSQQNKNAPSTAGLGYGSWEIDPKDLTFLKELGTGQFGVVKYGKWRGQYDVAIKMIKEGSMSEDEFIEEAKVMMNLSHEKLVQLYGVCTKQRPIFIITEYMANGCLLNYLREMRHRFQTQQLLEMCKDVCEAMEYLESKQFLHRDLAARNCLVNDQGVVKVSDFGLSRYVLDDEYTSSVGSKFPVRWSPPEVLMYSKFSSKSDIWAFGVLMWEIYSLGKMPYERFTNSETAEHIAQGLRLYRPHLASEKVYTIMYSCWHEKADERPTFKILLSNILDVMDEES

In general, IC50 refers to the concentration that gives 50% inhibition. For the compound `C[C@H]1C[C@H](CNC(=O)c2cn(C(C)(C)C)nn2)CCN1c1nc(-c2cnn(C)c2)cn2nccc12` (single isomer, unassigned) [Example 140], the IC50 is 10 to 1000 nM.
With `Cc1cc(-c2nc(N3CCN(C)CC3)cn3nccc23)ccc1CNC(=O)c1noc(C2(C)CC2)n1` [Example 131, N-(2-methyl-4-(6-(4-methylpiperazin-1-yl)pyrazolo[1,5-a]pyrazin-4-yl)benzyl)-5-(1-methylcyclopropyl)-1,2,4-oxadiazole-3-carboxamide trifluoroacetate], the half-maximal inhibitory concentration (IC50) was in the range of 1 to 10 nM.
With `CC(C)CN1CCN(CC2CCN(c3nc(-c4cnn(C)c4)cn4nccc34)CC2)C(=O)C1` [Example 168, 4-isobutyl-1-((1-(6-(1-methyl-1H-pyrazol-4-yl)pyrazolo[1,5-a]pyrazin-4-yl)piperidin-4-yl)methyl)piperazin-2-one], the half-inhibitory concentration (IC50) lay within 10 to 1000 nM.
Turning to `Cn1cc(-c2cn3nccc3c(-c3cc(F)c(CNC(=O)c4ccn(C(C)(C)C)n4)cc3F)n2)cn1` [Example 96, 1-(tert-butyl)-N-(2,5-difluoro-4-(6-(1-methyl-1H-pyrazol-4-yl)pyrazolo[1,5-a]pyrazin-4-yl)benzyl)-1H-pyrazole-3-carboxamide], the IC50 is 10 to 1000 nM.
Under `Cn1cc(-c2cc(-c3ccc(CNC(=O)c4cnn(C(C)(C)C)c4)cc3)n3cnnc3c2)cn1` [Example 77, 1-(tert-butyl)-N-(4-(7-(1-methyl-1H-pyrazol-4-yl)-[1,2,4]triazolo[4,3-a]pyridin-5-yl)benzyl)-1H-pyrazole-4-carboxamide] stands 10 to 1000 nM; under `C[C@H]1CN(c2nc(-c3cnn(C)c3)cn3nccc23)CC[C@H]1CNC(=O)c1noc(C2(C)CC2)n1` (single isomer, unassigned) [Example 147], 10 to 1000 nM.
Regarding `Cn1cc(-c2cn3nccc3c(N3CC4CCC(C3)C4CNC(=O)c3noc(C(C)(C)C)n3)n2)cn1` [Example 165, 5-(tert-butyl)-N-(((1R,5S,8r)-3-(6-(1-methyl-1H-pyrazol-4-yl)pyrazolo[1,5-a]pyrazin-4-yl)-3-azabicyclo[3.2.1]octan-8-yl)methyl)-1,2,4-oxadiazole-3-carboxamide], the IC50 lay within 10 to 1000 nM.
Under `CC(C)(C)c1nc(C(=O)NCc2ccc(-c3nc(N4CCOCC4)cn4nccc34)cc2F)co1` [Example 125, 2-(tert-butyl)-N-(2-fluoro-4-(6-morpholinopyrazolo[1,5-a]pyrazin-4-yl)benzyl)oxazole-4-carboxamide] stands 10 to 1000 nM.
For the compound `Cn1cc(-c2cn3nccc3c(N3CCC(C)(CNC(=O)c4noc(C5(C)CC5)n4)C3)n2)cn1` (stereo not shown) [Example 51, N-((3-methyl-1-(6-(1-methyl-1H-pyrazol-4-yl)pyrazolo[1,5-a]pyrazin-4-yl)pyrrolidin-3-yl)methyl)-5-(1-methylcyclopropyl)-1,2,4-oxadiazole-3-carboxamide], the IC50 lay within 1000 to 10000 nM.
Then `CC(C)(C)c1nnc(C(=O)NCc2ccc(-c3nc(N4CCOCC4)cn4nccc34)cc2)o1` [Example 29, 5-(tert-butyl)-N-(4-(6-morpholinopyrazolo[1,5-a]pyrazin-4-yl)benzyl)-1,3,4-oxadiazole-2-carboxamide], with 1000 to 10000 nM.
Then `C[C@@H]1C[C@H](CNC(=O)c2cn(C(C)(C)C)nn2)CCN1c1nc(-c2cnn(C)c2)cn2nccc12` (single isomer, unassigned) [Example 141], with 10 to 1000 nM.
As for `Cn1cc(-c2cn3nccc3c(N3CCCC(CNC(=O)c4cn(C(C)(C)C)nn4)CC3)n2)cn1` (stereo not shown) [Example 167, 1-(tert-butyl)-N-((1-(6-(1-methyl-1H-pyrazol-4-yl)pyrazolo[1,5-a]pyrazin-4-yl)azepan-4-yl)methyl)-1H-1,2,3-triazole-4-carboxamide], the IC50 fell in the range of 10 to 1000 nM.
Under `CN1CCN(CC2CCN(c3nc(-c4cnn(C)c4)cn4nccc34)CC2)C(=O)C1` [Example 171, 4-methyl-1-((1-(6-(1-methyl-1H-pyrazol-4-yl)pyrazolo[1,5-a]pyrazin-4-yl)piperidin-4-yl)methyl)piperazin-2-one] stands 1000 to 10000 nM.
Then `Cc1cc(-c2nc(-c3cnn(C4COC4)c3)cn3nccc23)ccc1CNC(=O)c1noc(C(C)(C)C)n1` [Example 55, 5-(tert-butyl)-N-(2-methyl-4-(6-(1-(oxetan-3-yl)-1H-pyrazol-4-yl)pyrazolo[1,5-a]pyrazin-4-yl)benzyl)-1,2,4-oxadiazole-3-carboxamide], with less than 1 nM; and `CC(C)(C)n1cc(C(=O)NCc2ccc(-c3nc(N4CCOCC4)cn4nccc34)cc2)nn1` [Example 26, 1-(tert-butyl)-N-(4-(6-morpholinopyrazolo[1,5-a]pyrazin-4-yl)benzyl)-1H-1,2,3-triazole-4-carboxamide], with 10 to 1000 nM; and `Cc1cc(-c2nc(-c3cnn(C)c3)cn3nccc23)ccc1CN1CCN(C2COC2)C(C)C1=O` (stereo not shown) [Example 37, 3-methyl-1-(2-methyl-4-(6-(1-methyl-1H-pyrazol-4-yl)pyrazolo[1,5-a]pyrazin-4-yl)benzyl)-4-(oxetan-3-yl)piperazin-2-one], with 10 to 1000 nM.
Then `C[C@@H]1CN(c2nc(-c3cnn(C)c3)cn3nccc23)CC[C@@H]1CNC(=O)c1cn(C(C)(C)C)nn1` (single isomer, unassigned) [Example 150], with 10 to 1000 nM; and `Cn1cc(-c2cn3nccc3c(N3C[C@H]4CC[C@@H](C3)[C@H]4CNC(=O)c3noc(C(C)(C)C)n3)n2)cn1` [Example 164, 5-(tert-butyl)-N-(((1R,5S,8s)-3-(6-(1-methyl-1H-pyrazol-4-yl)pyrazolo[1,5-a]pyrazin-4-yl)-3-azabicyclo[3.2.1]octan-8-yl)methyl)-1,2,4-oxadiazole-3-carboxamide], with 10 to 1000 nM.
Regarding `CC(C)(C)c1nc(C(=O)NCc2ccc(-c3nc(N4CCC4)cn4nccc34)cc2)no1` [Example 134, N-(4-(6-(azetidin-1-yl)pyrazolo[1,5-a]pyrazin-4-yl)benzyl)-5-(tert-butyl)-1,2,4-oxadiazole-3-carboxamide], the IC50 lay in the range of 1 to 10 nM.
Under `Cn1cc(-c2cn3nccc3c(N3CCC4(CC(NC(=O)c5noc(C(C)(C)C)n5)C4)C3)n2)cn1` (single isomer, unassigned) [Example 54, 5-(tert-butyl)-N-((2s,4r)-6-(6-(1-methyl-1H-pyrazol-4-yl)pyrazolo[1,5-a]pyrazin-4-yl)-6-azaspiro[3.4]octan-2-yl)-1,2,4-oxadiazole-3-carboxamide] stands 1000 to 10000 nM; under `Cn1cc(-c2cn3nccc3c(N3CCCC(CNC(=O)c4noc(C(C)(C)C)n4)CC3)n2)cn1` (stereo not shown) [Example 166, 5-(tert-butyl)-N-((1-(6-(1-methyl-1H-pyrazol-4-yl)pyrazolo[1,5-a]pyrazin-4-yl)azepan-4-yl)methyl)-1,2,4-oxadiazole-3-carboxamide], 10 to 1000 nM; under `Cc1cc(-c2nc(N3CCN(C)CC3)cn3nccc23)ccc1CNC(=O)c1cnn(C(C)(C)C)n1` [Example 124, 2-(tert-butyl)-N-(2-methyl-4-(6-(4-methylpiperazin-1-yl)pyrazolo[1,5-a]pyrazin-4-yl)benzyl)-2H-1,2,3-triazole-4-carboxamide trifluoroacetate], 10 to 1000 nM.
Turning to `CC(NC(=O)c1cn(C(C)(C)C)nn1)C1CCN(c2nc(-c3cnn(C)c3)cn3nccc23)CC1` (stereo not shown) [Example 163, 1-(tert-butyl)-N-(1-(1-(6-(1-methyl-1H-pyrazol-4-yl)pyrazolo[1,5-a]pyrazin-4-yl)piperidin-4-yl)ethyl)-1H-1,2,3-triazole-4-carboxamide], the IC50 lay in the range of 10 to 1000 nM.
Under `Cn1cc(-c2cn3nccc3c(N3CCC(CN4CCN(CC5CCC5)CC4=O)CC3)n2)cn1` [Example 169, 4-(Cyclobutylmethyl)-1-((1-(6-(1-methyl-1H-pyrazol-4-yl)pyrazolo[1,5-a]pyrazin-4-yl)piperidin-4-yl)methyl)piperazin-2-one] stands 10 to 1000 nM; under `Cn1cc(-c2cn3nccc3c(N3CCC4(CC(NC(=O)c5noc(C(C)(C)C)n5)C4)C3)n2)cn1` (single isomer, unassigned) [Example 53, 5-(tert-butyl)-N-((2r,4s)-6-(6-(1-methyl-1H-pyrazol-4-yl)pyrazolo[1,5-a]pyrazin-4-yl)-6-azaspiro[3.4]octan-2-yl)-1,2,4-oxadiazole-3-carboxamide], 10 to 1000 nM; under `CCCN1CCN(CC2CCN(c3nc(-c4cnn(C)c4)cn4nccc34)CC2)C(=O)C1` [Example 170, 1-((1-(6-(1-methyl-1H-pyrazol-4-yl)pyrazolo[1,5-a]pyrazin-4-yl)piperidin-4-yl)methyl)-4-propylpiperazin-2-one hydrochloride], 1000 to 10000 nM.
Regarding `Cn1cc(-c2cn3nccc3c(N3CC[C@H](CNC(=O)c4noc(C(C)(C)C)n4)C(F)(F)C3)n2)cn1` (single isomer, unassigned) [Example 159], the IC50 lay within 10 to 1000 nM.
Then `C[C@H]1C[C@@H](CNC(=O)c2cn(C(C)(C)C)nn2)CCN1c1nc(-c2cnn(C)c2)cn2nccc12` (single isomer, unassigned) [Example 142], with 10 to 1000 nM.
